Among the test systems are HCT-15 colon; HOP-92 NSCLC; HT29 colon; MDA-MB-435; NCI-H23 lung; NCI/ADR-RES ovarian; OVCAR-5 ovarian; RXF 393 renal; T-47D breast; SNB-75 CNS.
Assay in all cases: inhibition of tumour cell growth, NCI panel, 48 h

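48-hour exposure; five concentrations; linearly interpolated endpoints. The concentration for full growth arrest is given as TGI.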

On to `COc1cc([C@@H]2c3cc4c(cc3[C@H](OC3OC5COC(C(C)C)OC5C(O)C3O)C3COC(=O)[C@@H]32)OCO4)cc(OC)c1O` (stereo not given in full), for which the TGI in the assay on HCT-15 colon is 25.9 µM; with HOP-92 NSCLC it was 27.5 µM; in the assay with HT29 colon, 11.1 µM; in the assay with MDA-MB-435 it was 19.2 µM; in the assay on NCI-H23 lung, 15.4 µM; with NCI/ADR-RES ovarian, over 100 µM. The TGI stood at 25 µM in the assay on OVCAR-5 ovarian, 17.2 µM in the assay on RXF 393 renal and 60.1 µM in the assay with T-47D breast.
With `CCC1(OC(=O)CN2CCN(CCO)CC2)C(=O)OCc2c1cc1n(c2=O)Cc2cc3ccccc3nc2-1` (stereo not given), the TGI in the assay on HCT-15 colon was determined as 26.2 µM; in the assay on HOP-92 NSCLC, 6.96 µM; in the assay on HT29 colon it was 8.85 µM; with MDA-MB-435 it was 4.38 µM; with NCI-H23 lung it was 2.43 µM; with NCI/ADR-RES ovarian, 7.99 µM. The TGI came out at 7.6 µM in the assay on OVCAR-5 ovarian, 3.27 µM in the assay on RXF 393 renal, 1.92 µM in the assay on SNB-75 CNS and 4.92 µM with T-47D breast.
For the molecule `COc1ccccc1/C=C1\Sc2scc(-c3cccc([N+](=O)[O-])c3)[n+]2C1=O`, the TGI in the assay on HCT-15 colon was determined as 5.92 µM; in the assay with HOP-92 NSCLC it was 16.6 µM; in the assay on HT29 colon, 9.97 µM; in the assay on MDA-MB-435, 18.2 µM; in the assay with NCI-H23 lung, 29.6 µM; in the assay on NCI/ADR-RES ovarian, 34.2 µM. The TGI in the assay with OVCAR-5 ovarian was determined as 39 µM; in the assay on RXF 393 renal it was 10.7 µM; in the assay with SNB-75 CNS, 34.4 µM; in the assay on T-47D breast, 33.1 µM.
For the molecule `C[C@H](CCC1=NCCN1)[C@H]1CC[C@H]2[C@@H]3[C@H](O)C[C@@H]4C[C@H](O)CC[C@]4(C)[C@H]3CC[C@]12C`, the TGI in the assay on HCT-15 colon was 30.1 µM; in the assay on HOP-92 NSCLC, 21.8 µM; with HT29 colon, 10.4 µM; in the assay on MDA-MB-435, 26.7 µM; with NCI-H23 lung, 27.3 µM; in the assay on NCI/ADR-RES ovarian, over 100 µM. In addition, the TGI with OVCAR-5 ovarian came out at 27.5 µM; in the assay on RXF 393 renal, 31.6 µM; in the assay on SNB-75 CNS, 22.4 µM; in the assay on T-47D breast, 31.3 µM.
Consider `CCOc1ccc2ccccc2c1NC1=NCCO1`, for which the TGI was over 100 µM in the assay on HCT-15 colon; 42.2 µM in the assay on HOP-92 NSCLC; over 100 µM with HT29 colon; over 100 µM with MDA-MB-435; over 100 µM in the assay with NCI-H23 lung; over 100 µM in the assay on NCI/ADR-RES ovarian. Also, the TGI in the assay with OVCAR-5 ovarian, in the assay on RXF 393 renal, in the assay with SNB-75 CNS and in the assay with T-47D breast was over 100 µM each time.
For `O=C(CCCN1CCC2(CC1)C(=O)NC(=O)N2c1ccccc1)c1ccc(F)cc1`, the TGI in the assay with HCT-15 colon, with HOP-92 NSCLC, with HT29 colon, in the assay on MDA-MB-435, with NCI-H23 lung and in the assay on NCI/ADR-RES ovarian was over 100 µM throughout. Moreover, the TGI in the assay on OVCAR-5 ovarian, with RXF 393 renal, in the assay with SNB-75 CNS and with T-47D breast was over 100 µM each time.
For `Cc1ccc(-c2sc(-c3ccc(C)cc3)c3c2C2CCC3C2)cc1`, the TGI in the assay with HCT-15 colon, in the assay on HOP-92 NSCLC, in the assay on HT29 colon, with MDA-MB-435, in the assay with NCI-H23 lung and with NCI/ADR-RES ovarian was over 50 µM in each case. Besides, the TGI in the assay on OVCAR-5 ovarian, in the assay on RXF 393 renal and in the assay on T-47D breast was over 50 µM each time.
As to `N#Cc1cccc(C2ON=C(c3ccc([N+](=O)[O-])cc3)N2C23CC4CC(CC(C4)C2)C3)c1` (stereo not given), the TGI with HCT-15 colon, in the assay with HOP-92 NSCLC, in the assay with HT29 colon, in the assay on MDA-MB-435, with NCI-H23 lung and with NCI/ADR-RES ovarian was over 100 µM throughout. The TGI in the assay on OVCAR-5 ovarian was 31 µM; in the assay on RXF 393 renal it was over 100 µM; with SNB-75 CNS, over 100 µM; in the assay with T-47D breast it was over 100 µM.
Take `O=C(c1ccc(Cl)cc1Cl)N(Cc1cccnc1)C(=S)N(Cc1cccnc1)C(=O)c1ccc(Cl)cc1Cl`: the TGI came out at 15.4 µM in the assay with HCT-15 colon; 12 µM in the assay with HOP-92 NSCLC; 5.52 µM with HT29 colon; 66 µM in the assay on MDA-MB-435; 44.6 µM in the assay on NCI-H23 lung; 76 µM in the assay with NCI/ADR-RES ovarian. In addition, the TGI was 23.2 µM in the assay on OVCAR-5 ovarian, 33.2 µM in the assay on RXF 393 renal, 14 µM in the assay on SNB-75 CNS and 45.7 µM with T-47D breast.
Consider `CN1CCN(c2nc3ccccc3nc2C(=O)c2ccc(Cl)cc2)CC1`, for which the TGI with HCT-15 colon, in the assay with HOP-92 NSCLC, in the assay on HT29 colon, in the assay on MDA-MB-435, in the assay on NCI-H23 lung and in the assay with NCI/ADR-RES ovarian was over 100 µM throughout. Besides, the TGI was over 100 µM in the assay with OVCAR-5 ovarian, 77.3 µM in the assay on RXF 393 renal, over 100 µM in the assay on SNB-75 CNS and over 100 µM in the assay on T-47D breast.
For `O=c1[nH]c2cc(C(F)(F)F)ccc2nc1Cc1ccccc1`, the TGI is over 100 µM with HCT-15 colon; over 100 µM in the assay with HOP-92 NSCLC; over 100 µM with HT29 colon; over 100 µM in the assay with MDA-MB-435; 68.8 µM with NCI-H23 lung; over 100 µM with NCI/ADR-RES ovarian. Moreover, the TGI in the assay on RXF 393 renal is 85.8 µM; with SNB-75 CNS, over 100 µM; in the assay on T-47D breast, over 100 µM.
Consider `COc1ccc(NC(=O)CC(=O)n2nc(C)c(N=Nc3ccc(C)c(C)c3)c2C)cc1`, for which the TGI in the assay on HOP-92 NSCLC was 65.9 µM; in the assay with HT29 colon it was over 100 µM; with MDA-MB-435 it was over 100 µM; in the assay with NCI-H23 lung, over 100 µM; in the assay with NCI/ADR-RES ovarian it was over 100 µM; in the assay on OVCAR-5 ovarian, over 100 µM. Further, the values for the TGI in the assay with RXF 393 renal, in the assay with SNB-75 CNS and in the assay on T-47D breast were over 100 µM, 87 µM and over 100 µM, respectively.
Take `NS(=O)(=O)c1ccc(NC(=O)c2cc([N+](=O)[O-])cc([N+](=O)[O-])c2)cc1`: the TGI in the assay with HCT-15 colon was over 100 µM; with HOP-92 NSCLC it was 91.3 µM; with HT29 colon, over 100 µM; with MDA-MB-435 it was 35 µM; in the assay on NCI-H23 lung it was over 100 µM; in the assay with NCI/ADR-RES ovarian, over 100 µM. The TGI is over 100 µM in the assay on RXF 393 renal, over 100 µM in the assay on SNB-75 CNS and 85.8 µM in the assay with T-47D breast.

The record behind these values is PubChem BioAssay (NCI).
